Test results taken from patent EP0090353A1, “2-Pyridone derivatives, method for their preparation and pharmaceutical compositions containing them” (priority 1982, dated 1983).

Tests used:
[1] = test system: Adjuvans Arthritis; assay: Adjuvant arthritis (method of Pearson); type: in vivo, männliche Ratten eines Wistar-Lewis-Stammes; conditions: Rattus norvegicus; male Wistar-Lewis rats, oral daily from day 1 to day 5; reduction of paw volume increase vs control; ED50 read graphically from dose-response curve
From the text: 1. Adjuvans Arthritis Die Untersuchungen wurden nach der Methode von Pearson durchgeführt (Arthrit. Rheum. 2, 440 (1959)). […] Die zu […] Verbindungen wurden täglich vom 1. bis zum 5. Versuchstag oral appliziert. Tiere einer Kontrollgruppe erhielten nur das Lösungsmittel. Pro Dosierung und in der Kontrollgruppe wurden jeweils 8 […] unbehandelten Kontrollgruppe. Die ED50-Werte wurden graphisch aus […].

[2] = Gastric ulcerogenic effect; conditions: rat, stomach, po
From the text: Gastrale ulzerogene Wirkung
(§2) Die Untersuchungen erfolgten an jeweils 10 männlichen Sprague-Dawley Ratten im Körpergewicht von 200-300 g. 48 Stunden vor Applikation der zu vergleichenden Verbindungen bis zum Töten der Tiere wurde das Futter entzogen, bei freiem Zugang zum Trinkwasser. Die Ratten wurden 24 Stunden nach oraler Gabe getötet, der Magen entnommen, unter fließendem Wasser gereinigt und auf Schleimhautläsionen inspiziert. Als Ulzera galten alle makroskopisch sichtbaren Läsionen. Bestimmt wurde der Anteil der Tiere mit Ulzera pro dosi und die UD50 nach Lichtfield und Wilcoxon (J. Pharmacol. exp. Ther. 96, 99 (1949)).

[3] = test system: gastrale Ulcera; assay: Gastric ulcerogenic effect; conditions: ratio of UD50 (gastric ulcers) to ED50 (adjuvant arthritis), rat
From the text: Gastrale ulzerogene Wirkung
as §2

[4] = in vivo; conditions: rat, in vivo; Sprague-Dawley rats, 6 animals per dose; Litchfield-Wilcoxon; read-out: LD50 akute Toxizität
From the text: (§1) Die Bestimmung der akuten Toxizitäten erfolgten in Standardmethoden an Ratten des Sprague-Dawley-Stammes. Pro Dosierung wurden 6 Tiere verwendet. Die LD50-Werte wurden nach Lichtfield und Wilcoxon bestimmt. [drawing 8]

[5] = test system: Ratten des Sprague-Dawley-Stammes; assay: in vivo; conditions: ratio of LD50 (acute toxicity) to ED50 (adjuvant arthritis), rat
From the text: as §1

Structure (SMILES)	ED50 [1] [mg/kg]	TD50 at 24 h [2] [mg/kg]	TI(UD50/ED50) therapeutischer Index [3]	LD50 [4] [mg/kg]	TI (LD50 /ED50) therapeutischer Index [5]
CCOC(=O)[C@@H](C)Oc1cccc(-c2ccccc2)n1 [Beisp. 7, D(+)-2-(6-Phenylpyridin-2-oxy)-propansäureethylester]	15	125	8	–	–
CC(CO)Oc1cccc(-c2ccccc2)n1 (racemic) [Beisp. 9, DL-2-(6-Phenylpyridin-2-oxy)-propanol]	20	220	11	1000	50
CC(Oc1cccc(-c2ccccc2)n1)C(=O)O (racemic) [Beisp. 4, DL-2-(6-Phenylpyridin-2-oxy)-propansäure]	20	175	9	–	–
COc1ccc2cc([C@H](C)C(=O)O)ccc2c1 [Naproxen, reference compound]	15	–	–	–	–
CC1=C(CC(=O)O)c2cc(F)ccc2/C1=C\c1ccc([S+](C)[O-])cc1 (stereo not drawn) [Sulindac, reference compound]	13	26	2	–	–
